Measured values reported in patent US10259856B2, “Protease stabilized acylated insulin analogues” (priority 2008, dated 2019).

Columns and labels:
[1] = target: T1, human insulin receptor (IR-A) (Homo sapiens, UniProt P06213); assay: Insulin receptor affinity, SPA antibody capture assay (0% HSA); type: binding; conditions: affinity relative to human insulin
Description: (§1) The affinity of the acylated insulin analogues of this invention for the human insulin receptor is determined by a SPA assay (Scintillation Proximity Assay) microtiterplate antibody capture assay. […] Reagent mix for a single Packard Optiplate (Packard No. 6005190) is composed of 2.4 μl of a 1:5000 diluted purified recombinant human insulin receptor (either with or without exon 11), an amount of a stock solution of A14Tyr[^125I]-human insulin corresponding to 5000 cpm per 100 μl of reagent mix, 12 μl of a 1:1000 dilution of F12 antibody, 3 ml of SPA-beads and binding buffer to a total of 12 ml. A total of 100 μl reagent mix is then added to each well in the Packard Optiplate and a dilution series of the insulin derivative is made in the Optiplate from appropriate samples. The samples are then incubated for 16 hours while gently shaken. The phases are the then separated by centrifugation for 1 min and the plates counted in a Topcounter. The binding data were fitted using the nonlinear regression algorithm in the GraphPad Prism 2.01 (GraphPad Software, San Diego, Calif.) and affinities are expressed relative (in percentage (%)) to the affinity of human insulin.

[2] = Hydrophobicity by reverse phase HPLC under isocratic conditions; type: physicochemical; conditions: isocratic RP-HPLC, pH 7.3; human insulin as reference (k'rel = 1)
Description: The void time of the HPLC system, t0, is determined by injecting 5 μl of 0.1 mM NaNO3. Running conditions:
Column: Lichrosorb RP-C18, 5 μm, 4×250 mm
Buffer A: 0.1 M natrium phosphate pH 7.3, 10 vol % CH3CN

[3] = target: T1, human insulin receptor (IR-A); assay: Insulin receptor affinity, SPA assay with binding buffer containing 4.5% HSA; conditions: 4.5% HSA in binding buffer; affinity relative to human insulin
Description: as §1

T1 sequence (P06213 28-746 isoform P06213-2 limits assumed): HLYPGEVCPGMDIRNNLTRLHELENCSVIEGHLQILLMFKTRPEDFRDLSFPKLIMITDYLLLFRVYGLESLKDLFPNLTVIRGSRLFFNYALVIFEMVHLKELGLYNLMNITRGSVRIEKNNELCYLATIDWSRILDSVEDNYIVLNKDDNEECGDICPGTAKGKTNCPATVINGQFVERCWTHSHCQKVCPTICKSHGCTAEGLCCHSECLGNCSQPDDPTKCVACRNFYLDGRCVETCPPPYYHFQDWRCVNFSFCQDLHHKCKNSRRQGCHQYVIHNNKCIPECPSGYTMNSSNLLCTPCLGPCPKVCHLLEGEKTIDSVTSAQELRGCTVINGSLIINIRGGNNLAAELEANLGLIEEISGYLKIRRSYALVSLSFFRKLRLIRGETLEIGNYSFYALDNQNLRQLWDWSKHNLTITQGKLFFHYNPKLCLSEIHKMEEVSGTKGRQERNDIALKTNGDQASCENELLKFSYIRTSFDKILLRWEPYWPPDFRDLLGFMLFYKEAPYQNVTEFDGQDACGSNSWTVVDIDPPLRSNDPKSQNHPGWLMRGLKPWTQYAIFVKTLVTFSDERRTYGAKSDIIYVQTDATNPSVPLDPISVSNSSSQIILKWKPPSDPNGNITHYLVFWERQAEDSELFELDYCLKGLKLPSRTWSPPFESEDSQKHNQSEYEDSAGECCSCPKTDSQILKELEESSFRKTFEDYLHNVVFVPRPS
T1 sequence (P06213 763-1382 partner limits assumed): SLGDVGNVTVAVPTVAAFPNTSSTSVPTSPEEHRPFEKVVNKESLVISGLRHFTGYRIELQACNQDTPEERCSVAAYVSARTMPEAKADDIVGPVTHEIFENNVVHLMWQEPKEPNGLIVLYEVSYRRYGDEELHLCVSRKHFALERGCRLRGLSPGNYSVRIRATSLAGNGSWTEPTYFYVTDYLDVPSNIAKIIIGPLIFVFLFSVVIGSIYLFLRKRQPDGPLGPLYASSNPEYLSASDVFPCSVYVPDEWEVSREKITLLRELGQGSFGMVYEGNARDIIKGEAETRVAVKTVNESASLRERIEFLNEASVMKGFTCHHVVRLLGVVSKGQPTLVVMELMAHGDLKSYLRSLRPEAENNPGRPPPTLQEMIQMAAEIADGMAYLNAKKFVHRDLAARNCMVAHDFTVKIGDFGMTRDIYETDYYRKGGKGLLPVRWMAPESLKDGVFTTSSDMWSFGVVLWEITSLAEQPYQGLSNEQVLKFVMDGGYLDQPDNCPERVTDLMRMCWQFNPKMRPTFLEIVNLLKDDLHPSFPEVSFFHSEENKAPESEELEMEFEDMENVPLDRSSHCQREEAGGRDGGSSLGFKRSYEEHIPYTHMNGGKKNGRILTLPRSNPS

Substance | Relative IR-A affinity (@ 0% HSA) (%) [1] | Relative hydrophobicity, k'relderiv [2] | Relative IR-A affinity (@ 4.5% HSA) (%) [3]
A14E, B25H, B29K(N^ε3-Carboxy-5-octadecanedioylaminobenzoyl), desB30 Human Insulin [Example 4] | 3.4% | .48 | 
A14E, B25H, B29K(N^ε4-([4-({19-Carboxynonadecanoylamino}methyl)trans-cyclohexane-carbonyl-]-γGlu-γGlu), desB30 Human Insulin [Example 12] | 1.7% | .94 | 
A14E, B25H, B29K(N^ε4-([4-({19-Carboxynonadecanoylamino}methyl)trans-cyclohexanecarbonyl]-γGlu), desB30 Human Insulin [Example 7] | 2.1% | 2.78 | 
A14E, B25H, B29K(N^ε (N-Octadecandioyl-N-carboxymethyl)-beta-alanyl), desB30 Human Insulin [Example 6] | 2.6% |  | .04%
A14E, B25H, B29K(N^ε(5-Eicosanedioylaminoisophthalic acid)), desB30 Human Insulin [Example 47] | 1.2% |  | 0.10%
A14E, B25H, B29K(N^εEicosanedioyl-Aoc), desB30 Human Insulin [Example 53] | 2.3% |  | 0.03%
A14E, B25H, B29K(N^εMyristyl), desB30 Human Insulin [Example 10] | 9.5% | 14.60 | 
A14E, B25H, B29K(N^εOctadecanedioyl-γGlu-Abu-Abu-Abu-Abu), desB30 Human Insulin [Example 41] | 1.6% |  | .31%
A14E, B25H, B29K(N^εeicosanedioyl-γGlu-(3-(2-{2-[2-(2-aminoethoxy)ethoxy]ethoxy}ethoxy)propionyl-γGlu), desB30 Human Insulin [Example 17] | .9% | .57 | 
A14E, B25H, B29K(N^εoctadecandioyl-γGlu-PEG7), desB30 Human Insulin [Example 15] | 1.9% | .43 | 
A14E, B25H, B29K(N^ε—N-octadecandioyl-N-(2-carboxyethyl)glycyl), desB30 Human Insulin [Example 5] | 2.5% | .23 | 
